How the values were obtained:
[1] = Compatibility study of HAase and antibiotic in solution: appearance of the solution; format: physicochemical; details: 8 solutions of antibiotic (two concentrations) with HAase 150-6000 units/ml in physiological saline
Protocol: (§1) The compatibility of HAase and an antibiotic was studied by preparing a solution comprising the two substances. A dry Meropenem power for injection was dissolved in physiological saline to give a concentration of 5 mg/ml and 50 mg/ml, and then HAase was added to give a final concentration of 150, 500, 2000, and 6000 units/ml respectively. After preparation, the solution was left to stand at room temperature for 15 min. The appearance of the solution was observed, and the concentration of HAase was determined.
(§2) The compatibility of HAase and an antibiotic was studied by preparing a solution comprising the two substances. A dry Ceftriaxone sodium power for injection was dissolved in physiological saline to give a concentration of 50 mg/ml and 250 mg/ml, and then HAase was added to give a final concentration of 150, 500, 2000, and 6000 units/ml respectively. After preparation, the solution was left to stand at room temperature for 15 min. The appearance of the solution was observed, and the concentration of HAase was determined.
(§3) The compatibility of HAase and an antibiotic was studied by preparing a solution comprising the two substances. A dry Azithromycin power for injection was dissolved in physiological saline to give a concentration of 10 mg/ml and 100 mg/ml, and then HAase was added to give a final concentration of 150, 500, 2000, and 6000 units/ml respectively. After preparation, the solution was left to stand at room temperature for 15 min. The appearance of the solution was observed, and the concentration of HAase was determined.
(§4) The compatibility of HAase and an antibiotic was studied by preparing a solution comprising the two substances. A dry Cefradine powder for injection was dissolved in physiological saline to give a concentration of 50 mg/ml and 250 mg/ml, and then HAase was added to give a final concentration of 150, 500, 2000, and 6000 units/ml respectively. After preparation, the solution was left to stand at room temperature for 15 min. The appearance of the solution was observed, and the concentration of HAase was determined.
(§5) The compatibility of HAase and an antibiotic was studied by preparing a solution comprising the two substances. A dry Teicoplanin powder for injection was dissolved in physiological saline to give a concentration of 10 mg/ml and 70 mg/ml, and then HAase was added to give a final concentration of 150, 500, 2000, and 6000 units/ml respectively. After preparation, the solution was left to stand at room temperature for 15 min. The appearance of the solution was observed, and the concentration of HAase was determined.
The compatibility of HAase and an antibiotic was studied by preparing a solution comprising the two substances. A dry Ceftazidime powder for injection was dissolved in physiological saline to give a concentration of 20 mg/ml and 200 mg/ml, and then HAase was added to give a final concentration of 150, 500, 2000, and 6000 units/ml respectively. After preparation, the solution was left to stand at room temperature for 15 min. The appearance of the solution was observed, and the concentration of HAase was determined.
The compatibility of HAase and an antibiotic was studied by preparing a solution comprising the two substances. A dry Ertapenem power for injection was dissolved in physiological saline to give a concentration of 30 mg/ml and 300 mg/ml, and then HAase was added to give a final concentration of 150, 500, 2000, and 6000 units/ml respectively. After preparation, the solution was left to stand at room temperature for 15 min. The appearance of the solution was observed, and the concentration of HAase was determined.
The compatibility of HAase and an antibiotic was studied by preparing a solution comprising the two substances. A dry Polymyxin B powder for injection was dissolved in physiological saline to give a concentration of 50,000 units/ml and 250,000 units/ml, and then HAase was added to give a final concentration of 150, 500, 2000, and 6000 units/ml respectively.

HAase [2] = target: T1, HAase (Homo sapiens, UniProt P38567); assay: Compatibility study of HAase and antibiotic in solution: HAase activity; format: biochemical; details: 15 min room temperature; for Final concentration of HAase (units/ml) 150: HAase added to 150 units/ml; for Final concentration of HAase (units/ml) 500: HAase added to 500 units/ml; for Final concentration of HAase (units/ml) 2000: HAase added to 2000 units/ml; for Final concentration of HAase (units/ml) 6000: HAase added to 6000 units/ml; for interference with the activity of HAase: antibiotic and HAase in physiological saline
T1 construct: made in house
T1 sequence (P38567 36-482): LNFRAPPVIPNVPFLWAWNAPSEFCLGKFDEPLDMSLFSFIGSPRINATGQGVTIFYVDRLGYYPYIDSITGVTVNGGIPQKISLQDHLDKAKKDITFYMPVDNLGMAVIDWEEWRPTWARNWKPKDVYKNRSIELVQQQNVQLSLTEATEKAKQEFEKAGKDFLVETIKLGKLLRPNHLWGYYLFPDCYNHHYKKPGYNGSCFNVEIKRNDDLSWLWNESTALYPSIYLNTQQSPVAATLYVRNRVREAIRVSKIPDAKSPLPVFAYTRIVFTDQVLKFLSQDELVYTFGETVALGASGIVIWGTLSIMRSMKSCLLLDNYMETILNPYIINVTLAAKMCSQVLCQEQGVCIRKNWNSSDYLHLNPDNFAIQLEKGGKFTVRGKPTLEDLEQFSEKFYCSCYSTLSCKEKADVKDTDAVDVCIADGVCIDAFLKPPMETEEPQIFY
Protocol: “HAase activity refers to the ability of HAase to catalytically cleave hyaluronic acid. The Chinese Pharmacopoeia provides a method for determining the HAase activity, indirectly by measuring the amount of remaining higher-molecular-weight hyaluronic acid substrate after the enzyme is allowed to catalytically cleave hyaluronic acid at 37° C. for 30 min. A standard reference solution can be used in the assay to determine the relative activity (in units) of any HAase. In-vitro assays for the determination of HAase are known in the art. Exemplary assays include micro-turbidimetric assay described below, which indirectly measures the cleavage of hyaluronic acid by HAase by detecting an insoluble precipitate formed when uncleaved hyaluronic acid binds to serum albumin. The reference standard can be used, for example, to generate a standard curve, so as to determine the activity of the tested HAase in units.
as §1, §2, §3, §4, §5
The compatibility of HAase and an antibiotic was studied by preparing a solution comprising the two substances. A dry Ceftazidime powder for injection was dissolved in physiological saline to give a concentration of 20 mg/ml and 200 mg/ml, and then HAase was added to give a final concentration of 150, 500, 2000, and 6000 units/ml respectively. After preparation, the solution was left to stand at room temperature for 15 min.

HAase [3] = target: T1, HAase; assay: as above; format: biochemical; details: antibiotic 50,000 units/ml in physiological saline; HAase added to 150 units/ml; 15 min room temperature
[4] = antibiotic 5 mg/ml in physiological saline
[5] = antibiotic 50 mg/ml in physiological saline
[6] = antibiotic 10 mg/ml in physiological saline
[7] = antibiotic 100 mg/ml in physiological saline
[8] = antibiotic 50,000 units/ml in physiological saline
[9] = antibiotic 250,000 units/ml in physiological saline

**Q.** Which results are given for C[C@@H](O)[C@H]1C(=O)N2C(C(=O)O)=C(S[C@@H]3CN[C@H](C(=O)N(C)C)C3)[C@H](C)[C@H]12 [Meropenem]?
**A.** appearance of the solution [1]: clear and transparent; Final concentration of HAase (units/ml) 150 (HAase [2]; [4]): 150 units/ml; Final concentration of HAase (units/ml) 500 (HAase [2]; [4]): 511 units/ml; Final concentration of HAase (units/ml) 2000 (HAase [2]; [4]): 1979 units/ml; Final concentration of HAase (units/ml) 6000 (HAase [2]; [4]): 6271 units/ml; Final concentration of HAase (units/ml) 150 (HAase [2]; [5]): 145 units/ml; Final concentration of HAase (units/ml) 500 (HAase [2]; [5]): 491 units/ml; Final concentration of HAase (units/ml) 2000 (HAase [2]; [5]): 1984 units/ml; Final concentration of HAase (units/ml) 6000 (HAase [2]; [5]): 6121 units/ml; interference with the activity of HAase (HAase [2]): does not interfere with the activity of HAase

**Q.** What does the source list for CC[C@H]1OC(=O)[C@H](C)[C@@H](O[C@H]2C[C@@](C)(OC)[C@@H](O)[C@H](C)O2)[C@H](C)[C@@H](O[C@@H]2O[C@H](C)C[C@H](N(C)C)[C@H]2O)[C@](C)(O)C[C@@H](C)CN(C)[C@H](C)[C@@H](O)[C@]1(C)O [Azithromycin]?
**A.** appearance of the solution [1]: clear and transparent; Final concentration of HAase (units/ml) 150 (HAase [2]; [6]): 152 units/ml; Final concentration of HAase (units/ml) 500 (HAase [2]; [6]): 482 units/ml; Final concentration of HAase (units/ml) 2000 (HAase [2]; [6]): 1651 units/ml; Final concentration of HAase (units/ml) 6000 (HAase [2]; [6]): 6140 units/ml; Final concentration of HAase (units/ml) 150 (HAase [2]; [7]): 140 units/ml; Final concentration of HAase (units/ml) 500 (HAase [2]; [7]): 500 units/ml; Final concentration of HAase (units/ml) 2000 (HAase [2]; [7]): 1760 units/ml; Final concentration of HAase (units/ml) 6000 (HAase [2]; [7]): 5818 units/ml; interference with the activity of HAase (HAase [2]): does not interfere with the activity of HAase

**Q.** What does the source list for Polymyxin B?
**A.** appearance of the solution [1]: clear and transparent; Final concentration of HAase (units/ml) 150 (HAase [3]): 149 units/ml; Final concentration of HAase (units/ml) 500 (HAase [2]; [8]): 488 units/ml; Final concentration of HAase (units/ml) 2000 (HAase [2]; [8]): 2126 units/ml; Final concentration of HAase (units/ml) 6000 (HAase [2]; [8]): 5899 units/ml; Final concentration of HAase (units/ml) 150 (HAase [2]; [9]): 151 units/ml; Final concentration of HAase (units/ml) 500 (HAase [2]; [9]): 501 units/ml; Final concentration of HAase (units/ml) 2000 (HAase [2]; [9]): 2014 units/ml; Final concentration of HAase (units/ml) 6000 (HAase [2]; [9]): 6090 units/ml; interference with the activity of HAase (HAase [2]): does not interfere with the activity of HAase
